Assay results: US6472391B2, “Nitrogen-containing heterocyclic compounds” (Millennium Pharmaceuticals, Inc., priority 1996, dated 2002)

Row | SMILES | melting point [°C]
1 | COc1cc2ncnc(N3CCN(C(=O)Nc4ccc(OC(C)C)cc4)CC3)c2cc1OC [Compound 202, 4-(6,7-Dimethoxy-4-quinazolinyl)-N-(4-isopropoxyphenyl)-1-piperazinecarboxamide] | 220 to 222
2 | COc1cc2ncnc(N3CCN(C(=S)NCc4ccc(OC(F)(F)F)cc4)CC3)c2cc1OC [Compound 204, 4-(6,7-Dimethoxy-4-quinazolinyl)-N-(4-trifluoromethoxybenzyl)-1-piperazinethiocarboxamide] | 131 to 132
3 | COc1ccc(CNC(=S)N2CCN(c3ncnc4cc(OC)c(OC)cc34)CC2)cc1OC [Compound 205, N-(3,4-Dimethoxybenzyl)-4-(6,7-dimethoxy-4-quinazolinyl)-1-piperazinethiocarboxamide] | 196 to 197
4 | COc1ccc(CCNC(=S)N2CCN(c3ncnc4cc(OC)c(OC)cc34)CC2)cc1OC [Compound 206, N-[2-(3,4-Dimethoxyphenyl)ethyl]-4-(6,7-dimethoxy-4-quinazolinyl)-1-piperazinethiocarboxamide] | 98 to 100
5 | COc1cc2ncnc(N3CCN(C(=S)Nc4ccc5c(c4)OCCO5)CC3)c2cc1OC [Compound 209, 4-(6,7-Dimethoxy-4-quinazolinyl)-N-(3,4-ethylenedioxyphenyl)-1-piperazinethiocarboxamide] | 165 to 166
6 | COc1cc2ncnc(N3CCN(C(=O)Nc4cc(OC)c(OC)c(OC)c4)CC3)c2cc1OC [Compound 212, 4-(6,7-Dimethoxy-4-quinazolinyl)-N-(3,4,5-trimethoxyphenyl)-1-piperazinecarboxamide] | 198 to 199
7 | COc1cc2ncnc(N3CCN(C(=O)Nc4ccc(OC(C)=O)cc4)CC3)c2cc1OC [Compound 216, N-(4-Acetoxyphenyl)-4-(6,7-dimethoxy-4-quinazolinyl)-1-piperazinecarboxamide] | 197 to 199
8 | COc1cc2ncnc(N3CCN(C(=O)Nc4cccc(SC)c4)CC3)c2cc1OC [Compound 217, 4-(6,7-Dimethoxy-4-quinazolinyl)-N-(3-methylthiophenyl)-1-piperazinecarboxamide] | 180 to 181
9 | COc1cc2ncnc(N3CCN(C(=S)Nc4ccc(SC)cc4)CC3)c2cc1OC [Compound 218, 4-(6,7-Dimethoxy-4-quinazolinyl)-N-(4-methylthiophenyl)-1-piperazinethiocarboxamide] | 214 to 216
10 | CCSc1ccc(NC(=O)N2CCN(c3ncnc4cc(OC)c(OC)cc34)CC2)cc1 [Compound 219, 4-(6,7-Dimethoxy-4-quinazolinyl)-N-(4-ethylthiophenyl)-1-piperazinecarboxamide] | 208 to 209
11 | COc1cc2ncnc(N3CCN(C(=S)Nc4ccc(SC(F)(F)F)cc4)CC3)c2cc1OC [Compound 220, 4-(6,7-Dimethoxy-4-quinazolinyl)-N-(4-trifluoromethylthiophenyl)-1-piperazinethiocarboxamide] | 128 to 131
12 | COc1cc2ncnc(N3CCN(C(=O)Nc4ccc(N(C)C)cc4)CC3)c2cc1OC [Compound 222, 4-(6,7-Dimethoxy-4-quinazolinyl)-N-(4-dimethylaminophenyl)-1-piperazinecarboxamide] | 252 to 254
13 | COc1cc2ncnc(N3CCN(C(=O)NCc4ccc(N(C)C)cc4)CC3)c2cc1OC [Compound 223, 4-(6,7-Dimethoxy-4-quinazolinyl)-N-(4-dimethylaminobenzyl)-1-piperazinecarboxamide] | 188 to 190
14 | COc1cc2ncnc(N3CCN(C(=S)NCc4ccc(N(C)C)cc4)CC3)c2cc1OC [Compound 224, 4-(6,7-Dimethoxy-4-quinazolinyl)-N-(4-dimethylaminobenzyl)-1-piperazinethiocarboxamide] | 177 to 178
15 | CCN(CC)c1ccc(NC(=O)N2CCN(c3ncnc4cc(OC)c(OC)cc34)CC2)cc1 [Compound 225, N-(4-Diethylaminophenyl)-4-(6,7-dimethoxy-4-quinazolinyl)-1-piperazinecarboxamide] | 221 to 223
16 | COc1cc2ncnc(N3CCN(C(=S)Nc4cccc(NC(C)=O)c4)CC3)c2cc1OC [Compound 226, N-(3-Acetamidophenyl)-4-(6,7-dimethoxy-4-quinazolinyl)-1-piperazinethiocarboxamide] | 207 to 208
17 | COc1cc2ncnc(N3CCN(C(=O)Nc4ccc(CN(C)C)cc4)CC3)c2cc1OC [Compound 227, 4-(6,7-Dimethoxy-4-quinazolinyl)-N-[4-(N,N-dimethylaminomethyl)phenyl]-1-piperazinecarboxamide] | 213 to 215
18 | COc1cc2ncnc(N3CCN(C(=S)NC(=O)c4ccc([N+](=O)[O-])cc4)CC3)c2cc1OC [Compound 232, 4-(6,7-Dimethoxy-4-quinazolinyl)-N-(4-nitrobenzoyl)-1-piperazinethiocarboxamide] | 103 to 105
19 | COc1cc2ncnc(N3CCN(C(=O)Nc4ccc(Cl)cc4[N+](=O)[O-])CC3)c2cc1OC [Compound 234, N-(4-Chloro-2-nitrophenyl)-4-(6,7-dimethoxy-4-quinazolinyl)-1-piperazinecarboxamide] | 205 to 206

The remaining lines, values ahead:

Row | melting point [°C] | SMILES
20 | 213 to 215 | COc1cc2ncnc(N3CCN(C(=O)Nc4cc(C)c(C)cc4[N+](=O)[O-])CC3)c2cc1OC [Compound 237, 4-(6,7-Dimethoxy-4-quinazolinyl)-N-(4,5-dimethyl-2-nitrophenyl)-1-piperazinecarboxamide]
21 | 169 to 170 | COc1cc2ncnc(N3CCN(C(=S)Nc4cccc(C#N)c4)CC3)c2cc1OC [Compound 238, N-(3-Cyanophenyl)-4-(6,7-dimethoxy-4-quinazolinyl)-1-piperazinethiocarboxamide]
22 | 256 to 257 | COc1cc2ncnc(N3CCN(C(=S)Nc4ccc(C(C)=O)cc4)CC3)c2cc1OC [Compound 242, N-(4-Acetylphenyl)-4-(6,7-dimethoxy-4-quinazolinyl)-1-piperazinethiocarboxamide]
23 | 144 to 146 | COc1cc2ncnc(N3CCN(C(=O)Nc4ccc(C(=O)C(F)(F)F)cc4)CC3)c2cc1OC [Compound 243, 4-(6,7-Dimethoxy-4-quinazolinyl)-N-(4-trifluoroacetylphenyl)-1-piperazinecarboxamide]
24 | 218 to 219 | CCCC(=O)c1ccc(NC(=S)N2CCN(c3ncnc4cc(OC)c(OC)cc34)CC2)cc1 [Compound 244, N-(4-Butyrylphenyl)-4-(6,7-dimethoxy-4-quinazolinyl)-1-piperazinethiocarboxamide]
25 | 240 to 241 | COc1cc2ncnc(N3CCN(C(=O)Nc4ccc(C(=O)c5ccccc5)cc4)CC3)c2cc1OC [Compound 245, N-(4-Benzoylphenyl)-4-(6,7-dimethoxy-4-quinazolinyl)-1-piperazinecarboxamide]
26 | 187 to 188 | CCOC(=O)c1cccc(NC(=O)N2CCN(c3ncnc4cc(OC)c(OC)cc34)CC2)c1 [Compound 248, 4-(6,7-Dimethoxy-4-quinazolinyl)-N-(3-ethoxycarbonylphenyl)-1-piperazinecarboxamide]
27 | 208 to 209 | COC(=O)c1ccc(NC(=S)N2CCN(c3ncnc4cc(OC)c(OC)cc34)CC2)cc1 [Compound 249, 4-(6,7-Dimethoxy-4-quinazolinyl)-N-(4-methoxycarbonylphenyl)-1-piperazinethiocarboxamide]
28 | 266 to 269 | COc1cc2ncnc(N3CCN(C(=O)Nc4ccc(S(C)(=O)=O)cc4)CC3)c2cc1OC [Compound 251, 4-(6,7-Dimethoxy-4-quinazolinyl)-N-(4-mesylphenyl)-1-piperazinecarboxamide]
29 | 168 to 170 | COc1cc2ncnc(N3CCN(C(=O)NCc4ccco4)CC3)c2cc1OC [Compound 256, 4-(6,7-Dimethoxy-4-quinazolinyl)-N-furfuryl-1-piperazinecarboxamide]
30 | 239 to 241 | COc1cc2ncnc(N3CCN(C(=O)Nc4ccsc4)CC3)c2cc1OC [Compound 257, 4-(6,7-Dimethoxy-4-quinazolinyl)-N-(3-thienyl)-1-piperazinecarboxamide]
31 | 178 to 179 | COc1cc2ncnc(N3CCN(C(=O)NCc4ccsc4)CC3)c2cc1OC [Compound 258, 4-(6,7-Dimethoxy-4-quinazolinyl)-N-(3-thienylmethyl)-1-piperazinecarboxamide]
32 | 168 to 170 | COc1cc2ncnc(N3CCN(C(=O)NCc4cccs4)CC3)c2cc1OC [Compound 259, 4-(6,7-Dimethoxy-4-quinazolinyl)-N-(2-thienylmethyl)-1-piperazinecarboxamide]
33 | 226 to 228 | COC(=O)c1sccc1NC(=S)N1CCN(c2ncnc3cc(OC)c(OC)cc23)CC1 [Compound 260, 4-(6,7-Dimethoxy-4-quinazolinyl)-N-(2-methoxycarbonyl-3-thienyl)-1-piperazinethiocarboxamide]
34 | 113 to 116 | COC(=O)c1scc(C)c1NC(=S)N1CCN(c2ncnc3cc(OC)c(OC)cc23)CC1 [Compound 261, 4-(6,7-Dimethoxy-4-quinazolinyl)-N-(2-methoxycarbonyl-4-methyl-3-thienyl)-1-piperazinethiocarboxamide]
35 | 208 to 210 | COc1cc2ncnc(N3CCN(C(=S)Nc4ccccn4)CC3)c2cc1OC [Compound 262, 4-(6,7-Dimethoxy-4-quinazolinyl)-N-(2-pyridyl)-1-piperazinethiocarboxamide]
36 | 208 to 209 | COc1cc2ncnc(N3CCN(C(=O)Nc4cccnc4)CC3)c2cc1OC [Compound 265, 4-(6,7-Dimethoxy-4-quinazolinyl)-N-(3-pyridyl)-1-piperazinecarboxamide]
37 | 188 to 189 | COc1cc2ncnc(N3CCN(C(=O)NCc4cccnc4)CC3)c2cc1OC [Compound 266, 4-(6,7-Dimethoxy-4-quinazolinyl)-N-(3-picolyl)-1-piperazinecarboxamide]
38 | 141 to 143 | COc1cc2ncnc(N3CCN(C(=O)Nc4ccncc4)CC3)c2cc1OC [Compound 267, 4-(6,7-Dimethoxy-4-quinazolinyl)-N-(4-pyridyl)-1-piperazinecarboxamide]
39 | 218 to 220 | COc1cc2ncnc(N3CCN(C(=S)Nc4ccncc4)CC3)c2cc1OC [Compound 268, 4-(6,7-Dimethoxy-4-quinazolinyl)-N-(4-pyridyl)-1-piperazinethiocarboxamide]
